Data reported in the supplement of paper PMC10883282.
± gives the standard deviation of the averaged measurements.

Tested on: SW982
Assay: relative viability vs DMSO control (72 h) (fraction); higher = more viable cells
Method in brief: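 Sarcoma cell lines were grown in 384-well plates seeded toward 80–90% confluence and exposed 24 h later to serially diluted compound. After 72 h at 37 °C and 5% CO2, with 0.1% DMSO vehicle and a 5 µM positive control on the plates, ATPLite was read. Relative viability, given as percent growth averaged over up to triplicate wells, was rescaled so that 1 is full and 0 is none.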

Compound | relative viability (0.00017 µM) | relative viability (0.00051 µM) | relative viability (0.00152 µM) | relative viability (0.00457 µM) | relative viability (0.01372 µM) | relative viability (0.04115 µM) | relative viability (0.1235 µM) | relative viability (0.3704 µM) | relative viability (1.111 µM) | relative viability (3.333 µM) | relative viability (10 µM)
CCN1CCN(Cc2ccc(Nc3ncc(F)c(-c4cc(F)c5nc(C)n(C(C)C)c5c4)n3)nc2)CC1 [Abemaciclib] | 1.05 ± 0.036 | 1.06 ± 0.046 | 1.04 ± 0.043 | 1.06 ± 0.041 | 1.07 ± 0.035 | 0.987 ± 0.031 | 0.787 ± 0.046 | 0.593 ± 0.02 | 0.469 ± 0.013 | 0.302 ± 0.12 | 0.0803 ± 0.12
CC(C)NC(=O)C1CCC(n2c(NC(=O)c3ccc(F)cc3)nc3ccc(CN4CCC(C(C)(C)O)CC4)cc32)CC1 (stereo not drawn) [Belizatinib] | 1.09 ± 0.024 | 1.06 ± 0.023 | 1.05 ± 0.037 | 1.06 ± 0.03 | 1.06 ± 0.02 | 1.03 ± 0.054 | 0.974 ± 0.048 | 0.766 ± 0.045 | 0.383 ± 0.035 | 0.173 ± 0.011 | 0.0273 ± 0.0064
CC[C@H](Nc1ncnc2[nH]cnc12)c1nc2cccc(F)c2c(=O)n1-c1ccccc1 [Idelalisib] | 1.06 ± 0.033 | 1.06 ± 0.039 | 1.05 ± 0.039 | 1.07 ± 0.027 | 1.07 ± 0.055 | 1.08 ± 0.033 | 1.07 ± 0.04 | 1.067 ± 0.0099 | 1 ± 0.029 | 0.948 ± 0.074 | 0.778 ± 0.011
CC(C)(C)c1cc(NC(=O)Nc2ccc(-c3cn4c(n3)sc3cc(OCCN5CCOCC5)ccc34)cc2)no1 [Quizartinib] | 1.06 ± 0.028 | 1.05 ± 0.017 | 1.05 ± 0.03 | 1.05 ± 0.029 | 1.06 ± 0.017 | 1.06 ± 0.022 | 1.06 ± 0.027 | 1.04 ± 0.031 | 1.05 ± 0.017 | 1.05 ± 0.039 | 1.05 ± 0.039
Cc1cnc(Nc2ccc(OCCN3CCCC3)cc2)nc1Nc1cccc(S(=O)(=O)NC(C)(C)C)c1 [Fedratinib] | 1.03 ± 0.012 | 1.03 ± 0.033 | 1.07 ± 0.021 | 1.07 ± 0.016 | 1.088 ± 0.0018 | 1.06 ± 0.024 | 0.846 ± 0.052 | 0.394 ± 0.013 | 0.161 ± 0.0068 | 0.0074 ± 0.0013 | 0.00487 ± 0.00038
CC1(C)CNc2cc(NC(=O)c3cccnc3NCc3ccncc3)ccc21 [Motesanib] | 0.9792 ± 0.0014 | 0.972 ± 0.029 | 0.964 ± 0.039 | 0.964 ± 0.032 | 0.954 ± 0.013 | 0.933 ± 0.046 | 0.978 ± 0.042 | 0.965 ± 0.013 | 0.969 ± 0.033 | 0.9654 ± 0.0093 | 0.908 ± 0.086
Nc1cc(C(F)(F)F)c(-c2cc(N3CCOCC3)nc(N3CCOCC3)n2)cn1 [Buparlisib] | 1 ± 0.025 | 1 ± 0.033 | 1.04 ± 0.031 | 1.03 ± 0.049 | 1.04 ± 0.011 | 1.02 ± 0.041 | 0.983 ± 0.035 | 0.86 ± 0.02 | 0.405 ± 0.033 | 0.146 ± 0.0066 | 0.0979 ± 0.0037
Cc1cc(C)c(/C=C2\C(=O)Nc3ccccc32)[nH]1 [Semaxanib] | 1.02 ± 0.03 | 1.02 ± 0.031 | 0.997 ± 0.022 | 0.9929 ± 0.0051 | 0.968 ± 0.011 | 0.96 ± 0.029 | 0.947 ± 0.03 | 0.933 ± 0.011 | 0.904 ± 0.02 | 0.879 ± 0.028 | 0.821 ± 0.041
CCc1cc2c(cc1N1CCC(N3CCOCC3)CC1)C(C)(C)c1[nH]c3cc(C#N)ccc3c1C2=O [Alectinib] | 1.05 ± 0.043 | 1.06 ± 0.035 | 1.058 ± 0.0041 | 1.06 ± 0.026 | 1.04 ± 0.022 | 1.05 ± 0.017 | 1.032 ± 0.0038 | 1.05 ± 0.022 | 1.07 ± 0.019 | 1.06 ± 0.038 | 1.06 ± 0.046
Cn1cnc2c(F)c(Nc3ccc(Br)cc3F)c(C(=O)NOCCO)cc21 [Binimetinib] | 0.974 ± 0.046 | 1.04 ± 0.019 | 1.07 ± 0.018 | 0.981 ± 0.056 | 0.99 ± 0.05 | 0.92 ± 0.058 | 0.833 ± 0.043 | 0.831 ± 0.051 | 0.809 ± 0.038 | 0.786 ± 0.035 | 0.765 ± 0.042
C=CC(=O)Nc1cccc(Oc2nc(Nc3ccc(N4CCN(C)CC4)cc3)nc3ccsc23)c1 [Olmutinib] | 1.01 ± 0.024 | 1.01 ± 0.02 | 0.98 ± 0.01 | 1 ± 0.028 | 1.02 ± 0.016 | 1.01 ± 0.025 | 1 ± 0.011 | 0.969 ± 0.077 | 0.822 ± 0.065 | 0.663 ± 0.029 | 0.317 ± 0.033
CN1CCN(c2ccc3nc(-c4c(N)c5c(F)cccc5[nH]c4=O)[nH]c3c2)CC1 [Dovitinib] | 1.02 ± 0.018 | 1.03 ± 0.041 | 1.01 ± 0.015 | 0.98 ± 0.027 | 1.01 ± 0.059 | 1.01 ± 0.059 | 0.94 ± 0.036 | 0.793 ± 0.012 | 0.483 ± 0.015 | 0.237 ± 0.022 | 0.0627 ± 0.033
O=C(Cc1ccc(-c2ccc(OCCN3CCOCC3)cc2)cn1)NCc1ccccc1 [KX2-391] | 1.01 ± 0.037 | 1.07 ± 0.021 | 1.06 ± 0.04 | 1.06 ± 0.013 | 1.037 ± 0.0061 | 0.661 ± 0.02 | 0.299 ± 0.019 | 0.269 ± 0.017 | 0.265 ± 0.023 | 0.2804 ± 0.00064 | 0.278 ± 0.0036
C[C@@H]1COCCN1c1cc(-c2ccnn2C)c2ccnc(-c3ccn[nH]3)c2n1 | 1.04 ± 0.031 | 1.05 ± 0.052 | 1.05 ± 0.056 | 1.04 ± 0.015 | 0.989 ± 0.028 | 0.685 ± 0.039 | 0.499 ± 0.009 | 0.322 ± 0.011 | 0.1893 ± 0.0012 | 0.149 ± 0.002 | 0.142 ± 0.0075
CNC(=O)c1cc(Oc2ccc(NC(=O)Nc3ccc(Cl)c(C(F)(F)F)c3)c(F)c2)ccn1 [Regorafenib] | 1.03 ± 0.017 | 1.09 ± 0.057 | 1.08 ± 0.043 | 1.1 ± 0.052 | 1.06 ± 0.032 | 1.08 ± 0.057 | 1.09 ± 0.044 | 1.09 ± 0.056 | 0.997 ± 0.037 | 0.8827 ± 0.0051 | 0.795 ± 0.0056
Cc1ccc(NC(=O)c2ccc(CN3CCN(C)CC3)cc2)cc1Nc1nc(-c2cccnc2)cs1 [Masitinib] | 0.965 ± 0.027 | 0.996 ± 0.01 | 0.989 ± 0.015 | 0.983 ± 0.02 | 0.97 ± 0.026 | 0.961 ± 0.033 | 0.923 ± 0.025 | 0.89 ± 0.027 | 0.784 ± 0.045 | 0.513 ± 0.03 | 0.0613 ± 0.0081
CNC(=O)c1ccc(-c2cnc3ncc(Cc4ccc5ncccc5c4)n3n2)cc1F [Capmatinib] | 1.04 ± 0.023 | 1.07 ± 0.045 | 1.07 ± 0.076 | 1.042 ± 0.0035 | 1.06 ± 0.067 | 1.03 ± 0.025 | 1.04 ± 0.028 | 1.06 ± 0.045 | 1.07 ± 0.06 | 1.06 ± 0.057 | 1.02 ± 0.024
CCCS(=O)(=O)Nc1ccc(F)c(C(=O)c2c[nH]c3ncc(-c4ccc(Cl)cc4)cc23)c1F [Vemurafenib] | 1.04 ± 0.063 | 1.08 ± 0.048 | 1.05 ± 0.027 | 1.03 ± 0.029 | 1.06 ± 0.053 | 1.02 ± 0.045 | 0.9867 ± 0.0019 | 0.988 ± 0.039 | 1.01 ± 0.029 | 0.794 ± 0.035 | 0.532 ± 0.02
